Key:
15-PGDH/HPGD = molecular target: T1, 15-PGDH/HPGD (Homo sapiens, UniProt P15428); experiment: hPGDH inhibitor screening biochemical assay; conditions: 10 nM enzyme, 15 μM PGE2, 0.25 mM NAD, fluorescence ex/em 340/485 nm
T1 construct: purchased R&D System 5660-DH
T1 sequence (P15428 1-266): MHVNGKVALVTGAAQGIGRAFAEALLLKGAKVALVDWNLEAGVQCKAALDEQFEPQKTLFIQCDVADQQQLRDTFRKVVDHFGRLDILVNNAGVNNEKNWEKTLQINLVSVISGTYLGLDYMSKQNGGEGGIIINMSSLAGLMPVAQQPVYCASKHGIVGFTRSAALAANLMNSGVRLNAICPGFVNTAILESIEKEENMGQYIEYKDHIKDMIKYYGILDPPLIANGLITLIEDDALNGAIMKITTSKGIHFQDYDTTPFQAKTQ
Protocol: A hydroxyprostaglandin dehydrogenase inhibition screening biochemical assay can be performed to assess the synthesized inhibitors provided herein. Provided herein is an exemplary biochemical assay for hPGDH inhibitor screening.
The in vitro biochemical assay can be performed in white, 384 plates in total 20 μl reaction volume consisting of 10 nM of 15-PGDH/HPGD (R&D System #5660-DH), 15 μM Prostaglandin E2 (Sigma, C8 t #P5640-10 MG) and 0.25 mM β-Nicotinamide adenine dinucleotide sodium salt (Sigma, C8 t #N0632-5G) made in reaction buffer (50 mM Tris-HCl, pH 7.5, 0.01% Tween 20) at 10-point dose response curve for test/tool compounds. Briefly, 5 μl (4×) of compounds solution and 5 μl (final concentration, 10 nM) of enzyme solution is added to white 384 well plates and incubated for 10 mins at 37° C. 5 μl (4×) of […] and 5 μl (4×) of β-Nicotinamide adenine dinucleotide sodium salt is added to the wells and incubated for 10 mins at room temperature. Fluorescence is recorded at ex/em=340 nm/485 nm. The percentage (%) inhibition of enzyme activity was determined relative to positive control (1% DMSO) and IC50 was calculated using GraphPad prism software (four parameter-variable slope equation).

15-PGDH = molecular target: T2, 15-PGDH (Homo sapiens, UniProt P15428); experiment: A549 cell based assay: PGE2 in supernatant after IL-1β (HTRF); conditions: A549 cells, fold induction of PGE2, IL-1β plus test article versus IL-1β only
T2 construct: 15-PGDH is highly expressed in resting human lung adenocarcinoma cells (A549); endogenous in cells; host or cells: A549
T2 sequence (P15428 1-266): T1 sequence (P15428 1-266)
Protocol: Cell Based Assay: 15-PGDH is highly expressed in resting human lung adenocarcinoma cells (A549) (Tong et al., 2006), and this cell line was used to assess 15-PGDH inhibition by MF-300Na in vitro.
In this assay, A549 cells are treated with interleukin (IL) 1β, which induces the expression of cycloxygenase-2 and the synthesis of PGE2 (Tong et al., 2006). In the studies evaluating test articles, thirty thousand A549 cells were seeded in 100 μL F12K completed media and incubated for 24 hours at 37° C. with 5% CO2 before being serum-starved for 24 hours. On the day of the experiment, buffer was changed to complete medium, and cells were incubated for 30 minutes with compounds prior to the addition of IL-1β (final concentration of 0.1-0.25 ng/mL) overnight at 37° C. with 5% CO2. Each concentration was run in triplicate. […] The PGE2 in the supernatant was detected and quantified using a Cisbio HTRF technology (Homogeneous Time-Resolved Fluorescence) kit (62P2APEG-62P2APEH) according to the manufacturer's recommendations, quantifying the fold induction of PGE2 of cells treated with IL-1β plus test article, versus treatment with IL-1β only.

Row | Structure (SMILES) | IC50 (15-PGDH/HPGD) | PGE2 - HTRF over IL-β induction at 0.001 μM (15-PGDH) | PGE2 - HTRF over IL-β induction at 0.01 μM (15-PGDH) | PGE2 - HTRF over IL-β induction at 0.1 μM (15-PGDH) | PGE2 - HTRF over IL-β induction at 1 μM (15-PGDH)
1 | CCC1CCCN(C(=O)c2cnc3c(ccn3-c3cncc(NC(=O)OC)c3)c2)C1 (stereo in doubt) [Compound B-70, methyl(S)-(5-(5-(3-ethylpiperidine-1-carbonyl)-1H-pyrrolo[2,3-b]pyridin-1-yl)pyridin-3-yl)carbamate] | < 100 nM | 3.59 | 4.44 | 4.8 | 4.34
2 | O=C(c1cnc2c(ccn2-c2ccc(N3CCOC3=O)nc2)c1)N1CCC[C@@H](C(F)(F)F)C1 [Compound B-81] | 100 to 1000 nM | 0.51 | 1.08 | 2.21 | 1.92
3 | CCOC(=O)Nc1cc(-n2ccc3cc(C(=O)N4CCC(F)(F)CC4)cnc32)cnc1C [Compound B-96] | < 100 nM | 0.77 | 1.54 | 3.22 | 5.19
4 | O=C(c1cnc2c(ccn2-c2ccc(N3CCOC3=O)nc2)c1)N1CCC[C@H](C(F)(F)F)C1 [Compound B-80] | < 100 nM | 2.36 | 2.83 | 2.86 | 2.4
5 | O=C(O)c1ccc(-n2ccc3cc(C(=O)N4CCC(F)(F)CC4)cnc32)s1 [Compound B-118] | – | 1.48 | 1.55 | 1 | 1.02
6 | O=C(c1cnc2c(ccn2-c2ccc(-c3nc[nH]n3)s2)c1)N1CCC(F)(F)CC1 [Compound B-119] | – | 1.01 | 1.2 | 2.87 | 3.06
7 | O=C(c1cnc2c(ccn2-c2ccc(N3C(=O)CCC3=O)cc2)c1)N1CCC(F)(F)CC1 [Compound B-106] | – | 0.90 | 0.81 | 0.86 | 2.8
8 | C[C@H]1CCCN(C(=O)c2cnc3c(ccn3-c3ccc4nc(N(C)C)nn4c3)c2)C1 [Compound B-108] | – | 1.57 | 2.98 | 3.46 | 3.26
9 | Cc1nc2ccc(-n3ccc4cc(C(=O)N5CCC(F)(F)CC5)cnc43)cn2n1 [Compound B-120] | – | 1.34 | 1.28 | 4.15 | 6.26
10 | O=C(c1cnc2c(ccn2-c2ccc(N3CCOC3=O)nc2)c1)N1CCCC(F)(F)C1 [Compound B-115] | – | 4.36 | 3.07 | 4.92 | 5.24
11 | C[C@H]1CCCN(C(=O)c2cnc3c(ccn3-c3cnn(CC(F)(F)F)c3)c2)C1 [Compound B-100] | – | 0.79 | 1.78 | 4.49 | 5.26
12 | O=C(c1cnc2c(ccn2-c2ccc3nc(N4CCOCC4)nn3c2)c1)N1CCC(F)(F)CC1 [Compound B-97, (4,4-difluoropiperidin-1-yl)(1-(2-morpholino [1,2,4]triazolo [1,5-a]pyridin-6-yl)-1H-pyrrolo [2,3-b]pyridin-5-yl)methanone] | – | 1.08 | 2.42 | 4.98 | 5.37
13 | O=C(c1cnc2c(ccn2-c2ccc(-n3cnnc3)cc2)c1)N1CCC(F)(F)CC1 [Compound B-107] | – | 1.73 | 1.31 | 2.12 | 3.51
14 | O=C(c1cnc2c(ccn2-c2cc(Cl)cc(-c3nnc[nH]3)c2)c1)N1CCSCC1 [Compound B-251] | < 100 nM | – | – | – | –
15 | CCOC(=O)Nc1cncc(-n2ccc3cc([S+]([O-])C4CC4)cnc32)c1 (stereo not shown) [Compound B-315] | < 100 nM | – | – | – | –
16 | CC1CN(C(=O)c2cnc3c(ccn3-c3ccc(-c4nc(N)n[nH]4)nc3)c2)CCO1 (stereo not shown) [Compound B-49, (1-(6-(3-amino-1H-1,2,4-triazol-5-yl)pyridin-3-yl)-1H-pyrrolo [2,3-b]pyridin-5-yl)(2-methylmorpholino)methanone] | < 100 nM | – | – | – | –
17 | O=C(c1cnc2c(ccn2-c2ccc(-c3nnc[nH]3)c(Cl)c2)c1)N1CC[S+]([O-])CC1 [Compound B-261] | 100 to 1000 nM | – | – | – | –

Row | Structure (SMILES) | IC50 (15-PGDH/HPGD) | PGE2 - HTRF over IL-β induction at 0.001 μM (15-PGDH) | PGE2 - HTRF over IL-β induction at 0.01 μM (15-PGDH) | PGE2 - HTRF over IL-β induction at 0.1 μM (15-PGDH) | PGE2 - HTRF over IL-β induction at 1 μM (15-PGDH)
18 | COc1ccc(Cn2cc(-c3ccc(-n4ccc5cc(C(=O)N6CCC(F)(F)CC6)cnc54)cn3)nc2C)cc1 [Compound B-24, (4,4-difluoropiperidin-1-yl) (1-(6-(1-(4-methozybenzyl)-2-methyl-1H-imidazol-4-yl)pyridin-3-yl)-1H-pyrrolo[2,3-b]pyridin-5-yl)methanone] | < 100 nM | – | – | – | –
19 | COC(=O)Nc1cncc(-n2ccc3cc(C(=O)N4CCC[C@@H](C(F)(F)F)C4)cnc32)c1 [Compound B-66] | < 100 nM | – | – | – | –
20 | O=C(c1cnc2c(ccn2-c2ccc(-c3cnc[nH]3)cc2)c1)N1CCC(F)(F)CC1 [Compound B-226] | < 100 nM | – | – | – | –
21 | O=C(c1cnc2c(ccn2-c2cc(-c3nnc[nH]3)ccc2F)c1)N1CCC(F)(F)CC1 [Compound B-272] | < 100 nM | – | – | – | –
22 | O=C(c1cnc2c(ccn2-c2ccc(N3CCN(c4ccc(-n5ccc6cc(C(=O)N7CCC(F)(F)CC7)cnc65)cn4)C3=O)nc2)c1)N1CCC(F)(F)CC1 [Compound B-13] | 100 to 1000 nM | – | – | – | –
23 | CO[C@@H]1CCCN(C(=O)c2cnc3c(ccn3-c3ccc(-c4nnc[nH]4)c(Cl)c3)c2)C1 [Compound B-245] | < 100 nM | – | – | – | –
24 | O=C(c1cnc2c(ccn2-c2ccc(N3CCNC3=O)nc2)c1)N1CCC(F)(F)CC1 [Compound B-2] | < 100 nM | – | – | – | –
25 | Cc1cn2cc(-n3ccc4cc(C(=O)N5CCC(F)(F)CC5)cnc43)ccc2n1 [Compound B-103] | – | 1.15 | 1.34 | 5.1 | 6.3
26 | O=C(c1cnc2c(ccn2-c2cc(Cl)cc(-c3nnc[nH]3)c2)c1)N1CC[S+]([O-])CC1 [Compound B-257] | < 100 nM | – | – | – | –
27 | N#Cc1ccc(-n2ccc3cc(C(=O)N4CC[C@H](F)C4)cnc32)cc1 [Compound B-127] | < 100 nM | – | – | – | –
28 | O=C(c1cnc2c(ccn2-c2ccc(-c3ncn[nH]3)nc2)c1)N1CC[C@H](O)C1 [Compound B-43] | 100 to 1000 nM | – | – | – | –
29 | O=C(c1cnc2c(ccn2-c2ccc(-c3nnc[nH]3)c(Cl)c2)c1)N1CCSCC1 [Compound B-253] | < 100 nM | – | – | – | –
30 | CCOC(=O)Nc1cncc(-n2ccc3cc(C(=O)N4CCSCC4)cnc32)c1 [Compound B-230] | < 100 nM | – | – | – | –
31 | CN(C)c1nnc(-c2cccc(-n3ccc4cc(C(=O)N5CCC(F)(F)CC5)cnc43)c2)[nH]1 [Compound B-73] | < 100 nM | – | – | – | –
32 | O=C(c1cnc2c(ccn2-c2ccc(-c3nnc[nH]3)c(F)c2)c1)N1CCSCC1 [Compound B-254] | < 100 nM | – | – | – | –
33 | COc1cc(-n2ccc3cc(C(=O)N4CCC(F)(F)CC4)cnc32)ccc1-c1nnc[nH]1 [Compound B-266] | < 100 nM | – | – | – | –
